# Measured values published in PubChem BioAssay (NCI).
# Several values for one entry are separate records, joined by “and”; a condition that tells them apart may be missing. Equal values may be shown once.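 Test compounds were applied to cells in 96-well plates for 48 hours at 5 doses. The concentration for 50% growth inhibition is given as GI50. TGI: total growth inhibition.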
# Columns and labels:
# Assay in all cases: NCI anticancer screen, dose series, 48 h
# [1] = tested on: A498 renal
# [2] = tested on: ACHN renal
# [3] = tested on: COLO 205 colon
# [4] = tested on: HCT-116 colon
# [5] = tested on: HL-60(TB) leukemia
# [6] = tested on: MALME-3M melanoma
# [7] = tested on: NCI-H23 lung
# [8] = tested on: NCI-H522 lung
# [9] = tested on: OVCAR-8 ovarian
# [10] = tested on: SK-MEL-28 melanoma
SMILES,GI50 [1],TGI [1],GI50 [2],TGI [2],GI50 [3],TGI [3],GI50 [4],TGI [4],GI50 [5],TGI [5],GI50 [6],TGI [6],GI50 [7],TGI [7],GI50 [8],TGI [8],GI50 [9],TGI [9],GI50 [10],TGI [10]
[Cl][Cd][Cl],14 µM,32.9 µM,77.7 µM,162 µM,> 46.7 µM and 12.9 µM,> 69.2 µM and 36.3 µM,40.3 µM and 48.3 µM,117 µM,39.4 µM and 18.6 µM,> 84.5 µM and 118 µM,5.5 µM and > 34.7 µM and 3.68 µM,> 49.4 µM and 9.41 µM,3.08 µM and 25.4 µM and 2.68 µM,58.1 µM and 10.8 µM,0.32 µM and 1.39 µM and 0.349 µM,3.65 µM and 1.55 µM,119 µM,272 µM,17.9 µM and 11.6 µM,34.6 µM and 30.4 µM
COC1OC2COC(c3ccccc3)OC2C(O)C1Br (stereo not given),–,> 100 µM,–,> 100 µM,–,> 100 µM,–,> 100 µM,–,> 100 µM,–,> 100 µM,–,> 100 µM,–,> 100 µM,–,> 100 µM,–,> 100 µM
Cn1c(=O)c(Oc2ccc(F)cc2F)cc2cnc(NCCS(C)(=O)=O)nc21,> 25 µM,> 25 µM,> 25 µM,> 25 µM,> 25 µM,> 25 µM,> 25 µM,> 25 µM,> 25 µM,> 25 µM,> 25 µM,> 25 µM,> 25 µM,> 25 µM,> 25 µM,> 25 µM,> 25 µM,> 25 µM,> 25 µM,> 25 µM
COc1cc(Cl)cc(-c2nn(-c3cccc(NC(=O)Nc4ccc(Cl)c(C(F)(F)F)c4)c3)cc2-c2ccncc2)c1,2.68 µM,14.4 µM,0.762 µM,10.2 µM,1.53 µM,3.11 µM,0.631 µM,2.36 µM,1.68 µM,5.53 µM,1.71 µM,8.59 µM,1.36 µM,6.23 µM,0.418 µM,2.5 µM,0.739 µM,5.93 µM,2.41 µM,8.41 µM
Cn1cnc([N+](=O)[O-])c1Sc1ncn[nH]1,> 100 µM,> 100 µM,76.1 µM,> 100 µM,28.4 µM,> 100 µM,> 100 µM,> 100 µM,75.5 µM,> 100 µM,23.9 µM,> 100 µM,99.5 µM,> 100 µM,19.8 µM,> 100 µM,> 100 µM,> 100 µM,> 100 µM,> 100 µM
O=[N+]([O-])c1ccc(S(=O)(=O)Cc2ccccc2)c2nonc12,–,> 100 µM,–,46.1 µM,–,31.1 µM,–,31.8 µM,–,45.9 µM,–,33.4 µM,–,35.5 µM,–,38 µM,–,49 µM,–,38.5 µM
O=C(Nc1ccc(I)cc1F)c1cc(Cl)ccc1O,0.176 µM,0.585 µM,0.487 µM,10.6 µM,3.45 µM,11.2 µM,0.403 µM,1.95 µM,0.441 µM,3.27 µM,0.346 µM,1.83 µM,0.386 µM,3.79 µM,0.324 µM,4.68 µM,0.623 µM,11 µM,0.353 µM,1.71 µM
OCCN1CCN(CC/C=C2\c3ccccc3Sc3ccc(Cl)cc32)CC1,2.14 µM and 1.84 µM,4.29 µM and 7.94 µM,5.06 µM and 6.56 µM,17 µM and 17.9 µM,1.65 µM and 1.59 µM,3.24 µM and 3 µM,2.39 µM and 1.98 µM,4.85 µM and 4.18 µM,4.04 µM,3.71 µM and 9.92 µM,1.94 µM,3.8 µM,10.7 µM and 7.72 µM,28.2 µM and 21.4 µM,11.6 µM and 1.75 µM,29.1 µM and 3.38 µM,7.95 µM and 7.2 µM,28.3 µM and 19.8 µM,1.66 µM,3.91 µM and 3.03 µM
Cc1nc(Nc2nc3ccccc3o2)nc(-c2cccc([N+](=O)[O-])c2)c1C(=O)Nc1ccc(F)c(Cl)c1,0.853 µM,3.5 µM,2.42 µM,81.7 µM,1.78 µM,3.4 µM,1.98 µM,> 100 µM,2.15 µM,5.29 µM,1.92 µM,5.79 µM,2.19 µM,18.8 µM,1.39 µM,5.71 µM,2.44 µM,> 100 µM,3.83 µM,> 100 µM
C[C@H]1C(=O)CC[C@]2(C)CCC(C(C)(C)O)CC12O (stereo not given in full),–,> 100 µM,–,> 100 µM,–,> 100 µM,–,> 100 µM,–,> 100 µM,–,> 100 µM,–,> 100 µM,–,> 100 µM,–,> 100 µM,–,> 100 µM
CSc1cccc(NC(=O)OC2CCCCCCCCCCC2)c1,–,62.3 µM,–,> 100 µM,–,28.3 µM,–,38.9 µM,–,35.1 µM,–,59.1 µM,–,98 µM,–,37.1 µM,–,> 100 µM,–,> 100 µM
COc1ccc(-c2nn(-c3cccc(NC(=O)c4ccc(N5CCOCC5)c(C(F)(F)F)c4)c3)cc2-c2ccncc2)cc1Cl,2.44 µM,26.4 µM,10.2 µM,> 50 µM,4.25 µM,> 50 µM,3.74 µM,> 50 µM,4.42 µM,> 50 µM,5.05 µM,> 50 µM,29.9 µM,> 50 µM,2.77 µM,34.4 µM,4.47 µM,> 50 µM,9.97 µM,> 50 µM
O=[N+]([O-])c1ccc(Cl)cc1C1SCc2nc3ccccc3n21 (stereo not given),–,54 µM,–,27.4 µM,–,> 100 µM,–,> 100 µM,–,> 100 µM,–,> 100 µM,–,> 100 µM,–,80.1 µM,–,> 100 µM,–,> 100 µM
Oc1ccc(Cl)cc1CNc1nc2ccccc2[nH]1,0.141 µM,18.2 µM,13.8 µM,35.8 µM,16.8 µM,32.9 µM,12.1 µM,24.7 µM,19.8 µM,> 100 µM,13.8 µM,32.9 µM,14.3 µM,33.1 µM,11.9 µM,27.7 µM,12.9 µM,30.8 µM,13.6 µM,27.9 µM
